Values of other authors in patent US9962342B1, “Pharmaceutical composition containing guaifenesin and application thereof” (Sunny Pharmtech Inc., priority 2017, dated 2018).

Settings: in vivo

- half-life: approximately 1 hour
SMILES: COc1ccccc1OCC(O)CO (stereo not shown) [Guaifenesin]
